# According to US8268990B2, “Compounds” (AstraZeneca AB, priority 2007, dated 2012):
# Target: T1, Recombinant human TLR7 (Homo sapiens, UniProt Q9NYK1)
# T1 construct: expressed in transfected cells; host or cells: HEK293 cell line stably expressing the pNiFty2-SEAP reporter plasmid; TLR7 in vector pUNO, blasticidin selection
# T1 sequence (Q9NYK1 27-1049): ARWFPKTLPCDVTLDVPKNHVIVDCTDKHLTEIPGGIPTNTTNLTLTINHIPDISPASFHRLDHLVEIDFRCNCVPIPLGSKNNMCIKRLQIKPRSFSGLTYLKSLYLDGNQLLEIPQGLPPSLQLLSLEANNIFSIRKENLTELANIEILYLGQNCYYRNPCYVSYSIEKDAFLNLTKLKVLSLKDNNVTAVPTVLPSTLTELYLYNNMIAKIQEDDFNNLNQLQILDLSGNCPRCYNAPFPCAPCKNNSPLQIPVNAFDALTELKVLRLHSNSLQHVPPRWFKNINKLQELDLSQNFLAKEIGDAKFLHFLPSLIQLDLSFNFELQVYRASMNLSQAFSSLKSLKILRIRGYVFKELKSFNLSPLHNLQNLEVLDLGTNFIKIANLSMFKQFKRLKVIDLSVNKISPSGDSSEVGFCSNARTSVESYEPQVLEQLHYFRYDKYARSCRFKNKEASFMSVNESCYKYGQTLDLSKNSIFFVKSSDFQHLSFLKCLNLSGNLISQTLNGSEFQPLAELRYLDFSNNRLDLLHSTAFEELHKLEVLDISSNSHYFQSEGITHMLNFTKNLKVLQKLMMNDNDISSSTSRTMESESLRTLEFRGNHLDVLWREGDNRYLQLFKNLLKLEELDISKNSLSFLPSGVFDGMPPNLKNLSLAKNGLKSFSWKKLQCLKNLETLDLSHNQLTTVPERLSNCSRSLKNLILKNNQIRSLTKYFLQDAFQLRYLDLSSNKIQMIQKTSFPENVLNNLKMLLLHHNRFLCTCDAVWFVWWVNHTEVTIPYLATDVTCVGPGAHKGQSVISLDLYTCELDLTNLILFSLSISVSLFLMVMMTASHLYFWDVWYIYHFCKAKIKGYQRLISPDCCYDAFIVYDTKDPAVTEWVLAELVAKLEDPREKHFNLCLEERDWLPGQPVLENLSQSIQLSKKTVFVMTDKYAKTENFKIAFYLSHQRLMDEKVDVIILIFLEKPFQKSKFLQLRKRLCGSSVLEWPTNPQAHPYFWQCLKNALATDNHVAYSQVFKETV
# Experiment: Human TLR7 Assay (SEAP reporter);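 further: SEAP driven by an NFkB-responsive composite promoter, pEC50 read at half of each compound's own maximal SEAP induction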
# Assay type: cell-based
# Conditions: HEK293 cell line stably expressing human TLR7 and pNiFty2-SEAP reporter; SEAP induction after overnight incubation at 37° C., 0.1% (v/v) DMSO
# Text: Recombinant human TLR7 was stably expressed in a HEK293 cell line already stably expressing the pNiFty2-SEAP reporter plasmid; integration of the reporter gene was maintained by selection with the antibiotic zeocin. The most common variant sequence of human TLR7 (represented by the EMBL sequence AF240467) was cloned into the mammalian cell expression vector pUNO and transfected into this reporter cell-line. Transfectants with stable expression were selected using the antibiotic blasticidin. In this reporter cell-line, expression of secreted alkaline phosphatase (SEAP) is controlled by an NFkB/ELAM-1 composite promoter comprising five NFkB sites combined with the proximal ELAM-1 promoter. TLR signaling leads to the translocation of NFkB and activation of the promoter results in expression of the SEAP gene. TLR7-specific activation was assessed by determining the level of SEAP produced following overnight incubation of the cells at 37° C. with the standard compound in the presence of 0.1% (v/v) dimethylsulfoxide (DMSO). Concentration dependent induction of SEAP production by compounds was expressed as the concentration of compound which produced half of the maximal level of SEAP induction for that compound (pEC50).
row,SMILES,EC50 [nM]
1,"CCCCCNc1nc(N)nc(C)c1Cc1ccc(CC(=O)OCCN2CCOCC2)cc1 [Example 35, 2-Morpholinoethyl 2-(4-((2-amino-4-methyl-6-(pentylamino)pyrimidin-5-yl)methyl)phenyl)acetate]",251
2,"CCCCCNc1nc(N)nc(C)c1Cc1ccc(CC(=O)OCCCN(C)C)cc1 [Example 37, 3-(Dimethylamino)propyl 2-(4-((2-amino-4-methyl-6-(pentylamino)pyrimidin-5-yl)methyl)phenyl)acetate]",126
3,"CCCCCNc1nc(N)nc(C)c1Cc1ccc(CC(=O)OCCN2CCN(C)CC2)cc1 [Example 38, 2-(4-Methylpiperazin-1-yl)ethyl 2-(4-((2-amino-4-methyl-6-(pentylamino)pyrimidin-5-yl)methyl)phenyl)acetate]",126
4,"CCCCCNc1nc(N)nc(C)c1Cc1cc(CC(=O)OC)ccc1O [Example 39, Methyl 2-(3-((2-amino-4-methyl-6-(pentylamino)pyrimidin-5-yl)methyl)-4-hydroxyphenyl)acetate]",100
5,"CCCCCNc1nc(N)nc(C)c1Cc1ccc(OCC(=O)OC)cc1OC [Example 40, Methyl 2-(4-((2-amino-4-methyl-6-(pentylamino)pyrimidin-5-yl)methyl)-3-methoxyphenoxy)acetate]",126
6,"CCC[C@@H](CCO)Nc1nc(N)nc(C)c1Cc1cc(CC(=O)OC)ccc1F [Example 42, (S)-Methyl 2-(3-((2-amino-4-(1-hydroxyhexan-3-ylamino)-6-methylpyrimidin-5-yl)methyl)-4-fluorophenyl)acetate]",631
7,"CCCC[C@@H](CO)Nc1nc(N)nc(C)c1Cc1ccc(CC(=O)OC)cc1 [Example 44, (S)-Methyl 2-(4-((2-amino-4-(1-hydroxyhexan-2-ylamino)-6-methylpyrimidin-5-yl)methyl)phenyl)acetate]",631
8,"CCCCCNc1nc(N)nc(C)c1CCCN(Cc1ccc(CC(=O)OC)cc1)C(=O)CSC [Example 52, Methyl 2-(4-((N-(3-(2-amino-4-methyl-6-(pentylamino)pyrimidin-5-yl)propyl)-2-(methylthio)acetamido)methyl)phenyl)acetate]",631
9,"CCCCCNc1nc(N)nc(C)c1Cc1ccc(CC(=O)OCCCN2CCN(C)CC2)cc1 [Example 56, 3-(4-Methylpiperazin-1-yl)propyl 2-(4-((2-amino-4-methyl-6-(pentylamino)pyrimidin-5-yl)methyl)phenyl)acetate]",251
10,"CCCCCNc1nc(N)nc(C)c1Cc1ccc(CC(=O)OCCCCN(C)C)cc1 [Example 57, 4-(Dimethylamino)butyl 2-(4-((2-amino-4-methyl-6-(pentylamino)pyrimidin-5-yl)methyl)phenyl)acetate]",126
11,"CCCCCNc1nc(N)nc(C)c1Cc1ccc(CC(=O)OCCCN2CCOCC2)cc1 [Example 58, 3-Morpholinopropyl 2-(4-((2-amino-4-methyl-6-(pentylamino)pyrimidin-5-yl)methyl)phenyl)acetate]",126
12,"CCCCCNc1nc(N)nc(C)c1Cc1ccc(CC(=O)OC2CCN(C)CC2)cc1 [Example 59, 1-Methylpiperidin-4-yl 2-(4-((2-amino-4-methyl-6-(pentylamino)pyrimidin-5-yl)methyl)phenyl)acetate]",126
13,"CCCCCNc1nc(N)nc(C)c1Cc1ccc(CC(=O)OCC2CCN(CCOC)CC2)cc1 [Example 62, (1-(2-Methoxyethyl)piperidin-4-yl)methyl 2-(4-((2-amino-4-methyl-6-(pentylamino)pyrimidin-5-yl)methyl)phenyl)acetate]",200
14,"CCCCCNc1nc(N)nc(C)c1Cc1ccc(CC(=O)OCCCCN2CCN(C)CC2)cc1 [Example 63, 4-(4-Methylpiperazin-1-yl)butyl 2-(4-((2-amino-4-methyl-6-(pentylamino)pyrimidin-5-yl)methyl)phenyl)acetate]",158

# More lines, in order of falling EC50, values ahead:
row,EC50 [nM],SMILES
1,1000,"CCCCNc1nc(N)nc(C)c1Cc1ccc(CC(=O)OC)cc1 [Example 41, Methyl 2-(4-((2-amino-4-(butylamino)-6-methylpyrimidin-5-yl)methyl)phenyl)acetate]"
2,794,"CCC[C@@H](CO)Nc1nc(N)nc(C)c1Cc1ccc(CC(=O)OC)cc1 [Example 43, (S)-Methyl 2-(4-((2-amino-4-(1-hydroxypentan-2-ylamino)-6-methylpyrimidin-5-yl)methyl)phenyl)acetate]"
3,794,"CCCCCNc1nc(N)nc(C)c1CCCN(Cc1ccc(CC(=O)OC)cc1)C(=O)C1CCN(C)CC1 [Example 51, Methyl 2-(4-((N-(3-(2-amino-4-methyl-6-(pentylamino)pyrimidin-5-yl)propyl)-1-methylpiperidine-4-carboxamido)methyl)phenyl)acetate]"
4,501,"CCC[C@@H](CO)Nc1nc(N)nc(C)c1Cc1ccc(CC(=O)OC)cc1F [Example 47, (S)-Methyl 2-(4-((2-amino-4-(1-hydroxypentan-2-ylamino)-6-methylpyrimidin-5-yl)methyl)-3-fluorophenyl)acetate]"
5,251,"CCCCCNc1nc(N)nc(C)c1Cc1ccc(CC(=O)OCCN(C)C)cc1 [Example 36, 2-(Dimethylamino)ethyl 2-(4-((2-amino-4-methyl-6-(pentylamino)pyrimidin-5-yl)methyl)phenyl)acetate]"
6,200,"CCC[C@@H](CCO)Nc1nc(N)nc(C)c1Cc1ccc(CC(=O)OC)cc1 [Example 49, (S)-Methyl 2-(4-((2-amino-4-(1-hydroxyhexan-3-ylamino)-6-methylpyrimidin-5-yl)methyl)phenyl)acetate]"
7,200,"CCCCCNc1nc(N)nc(C)c1Cc1ccc(CC(=O)OCC2CCN(C)CC2)cc1 [Example 60, (1-Methylpiperidin-4-yl)methyl 2-(4-((2-amino-4-methyl-6-(pentylamino)pyrimidin-5-yl)methyl)phenyl)acetate]"
8,158,"CCCC[C@@H](CCO)Nc1nc(N)nc(C)c1Cc1ccc(CC(=O)OC)cc1 [Example 50, (S)-Methyl 2-(4-((2-amino-4-(1-hydroxyheptan-3-ylamino)-6-methylpyrimidin-5-yl)methyl)phenyl)acetate]"
9,126,"CCCCCNc1nc(N)nc(C)c1Cc1ccc(CC(=O)OCC(C)(C)CN(C)C)cc1 [Example 55, 3-(Dimethylamino)-2,2-dimethylpropyl 2-(4-((2-amino-4-methyl-6-(pentylamino)pyrimidin-5-yl)methyl)phenyl)acetate]"
10,126,"CCCCCNc1nc(N)nc(C)c1Cc1ccc(CC(=O)OCCCCN2CCCC2)cc1 [Example 61, 4-(Pyrrolidin-1-yl)butyl 2-(4-((2-amino-4-methyl-6-(pentylamino)pyrimidin-5-yl)methyl)phenyl)acetate]"
11,79.4,"CCCCCNc1nc(N)nc(C)c1Cc1cc(CC(=O)OC)ccc1OC [Example 54, Methyl 2-(3-((2-amino-4-methyl-6-(pentylamino)pyrimidin-5-yl)methyl)-4-methoxyphenyl)acetate]"
12,50.1,"CCCC[C@@H](CO)Nc1nc(N)nc(C)c1Cc1ccc(CC(=O)OC)cc1OC [Example 32, (S)-Methyl 2-(4-((2-amino-4-(1-hydroxyhexan-2-ylamino)-6-methylpyrimidin-5-yl)methyl)-3-methoxyphenyl)acetate]"
13,50.1,"CCCC[C@@H](CCO)Nc1nc(N)nc(C)c1Cc1ccc(CC(=O)OC)cc1F [Example 33, (S)-Methyl 2-(4-((2-amino-4-(1-hydroxyheptan-3-ylamino)-6-methylpyrimidin-5-yl)methyl)-3-fluorophenyl)acetate]"
14,50.1,"CCC[C@@H](CCO)Nc1nc(N)nc(C)c1Cc1ccc(CC(=O)OC)cc1F [Example 45, (S)-Methyl 2-(4-((2-amino-4-(1-hydroxyhexan-3-ylamino)-6-methylpyrimidin-5-yl)methyl)-3-fluorophenyl)acetate]"
15,39.8,"CC[C@H](O)CNc1nc(N)nc(C)c1Cc1ccc(CC(=O)OC)cc1OC [Example 53, (S)-Methyl 2-(4-((2-amino-4-(2-hydroxybutylamino)-6-methylpyrimidin-5-yl)methyl)-3-methoxyphenyl)acetate]"
16,6.31,"CCCC[C@@H](CCO)Nc1nc(N)nc(C)c1Cc1ccc(CC(=O)OC)cc1OC [Example 31, (S)-Methyl 2-(4-((2-amino-4-(1-hydroxyheptan-3-ylamino)-6-methylpyrimidin-5-yl)methyl)-3-methoxyphenyl)acetate]"
17,2,"CCC[C@@H](CCO)Nc1nc(N)nc(C)c1Cc1ccc(CC(=O)OC)cc1OC [Example 48, (S)-Methyl 2-(4-((2-amino-4-(1-hydroxyhexan-3-ylamino)-6-methylpyrimidin-5-yl)methyl)-3-methoxyphenyl)acetate]"
